Laboratory results: patent publication US8410107B2, “N-pyridin-3-yl or N-pyrazin-2-yl carboxamides” (Hoffmann-La Roche Inc., priority 2010, dated 2013)

Columns and labels:
human CB1 receptor = biological target: T1, human CB1 receptor (Homo sapiens, UniProt P21554); test: CB1 receptor affinity ([3H]-CP-55,940 displacement, HEK cell membranes); type: binding; conditions: displacement of radioligand [3H]-CP-55,940
T1 construct: expressed in transfected cells; host or cells: human embryonic kidney (HEK) cells, Semliki Forest Virus system, membrane preparations
Method: (§1) The affinity of the compounds of the invention for cannabinoid receptors was determined using membrane preparations of human embryonic kidney (HEK) cells in which the human CB1 receptor is transiently transfected using a Semliki Forest Virus system in conjunction with [3H]-CP-55,940 as radioligand. After incubation of freshly prepared cell membrane preparation with the [^3H]-ligand, with or without addition of compounds of the invention, separation of bound and free ligand was performed by filtration over glass fiber filters. Radioactivity on the filter was measured by scintillation counting.
(§2) The ability of the compounds to displace the radioligand [^3H]-CP-55,940 was measured at a concentration of 10 μM and values provided as [% inhibition @ 10 μM] both for the CB1 and CB2 receptor assay, The lower % inhibition is, the lower the likelihood of side effects based on CB1 or CB2 receptor inhibition is.

ABCA1 protein = test: Detection of upregulation of ABCA1 protein in cells (ApoA-I binding, high content image analysis); type: cell-based; conditions: THP-1 macrophage cells; for EC50: ABCA1 protein increasing efficacy; for % increase of ABCA1 at 3 μM: 24 hrs with compound
Method: The ability of compounds of the invention to increase the level of ABCA1 protein is determined in replicate cultures of THP-1 macrophage cells in 96-well microplates. Cells are plated at an initial density of 100,000 cells/well in 100 μl medium and differentiated to adherent macrophages with the addition of PMA (100 nM) for 68 hrs in 10% fetal bovine serum, 3 μl/L of b-mercaptoethanol, RPMI-1640 medium. Then, cells are incubated with RPMI-1640 medium containing 1% FCS, 25 μg/ml acetylated LDL, for 24 hours at 37°. Following incubation with acetylated LDL, cells are washed twice with 50 μl PBS and incubated with 100 μl of RPMI-1640 medium containing the compound of interest solubilized in DMSO for an additional 24 hrs. The final DMSO concentration in presence of cells is maintained at 0.5%. ApoA-I binding assay using High Content Image Analysis is initiated by replacing with fresh medium, RPMI without Phenol Red, 0.2% BSA containing AlexaFluor®647 labeled ApoA-I for 2 h/37° C./5% CO2. Then, cells are fixed with 4% Formaldehyde inPBS (15 min, RT). Following Nuclei are stained with Hoechst solution (3 μM PBS) and Cytoplasm with Cell Mask Blue (2 μg/ml PBS), 15 min, RT. Finally the stained cells are fixed with a second round of formaldehyde treatment. Fixed stained cells are washed and kept in PBS at 4° C. and can be read immediately until one month after preparation.
The Alexa Fluor 647-labeled Apolipoprotein A-I (20 nM) was prepared as follows: Human recombinant Apolipoprotein A-I (ApoA-I) was exchanged to a buffer of 0.02 M NaHCO3 at pH 8.2 on an NAP desalting column (GE Healthcare) and brought to a concentration to 40 μM (1.13 mg/ml) by adjustment with the same buffer. The ApoA-I was fluorescently labeled by incubation with Alexa Fluor carboxylic acid succimidyl ester. (Alexa Fluor 647, Invitrogen A-20006) at a 2:1 molar ratio (Alexa to ApoA-I) for 1 h under shaking at RT. The remaining unconjugated label was removed by buffer exchange to 0.02M NaHCO3 at pH 8.2.
Imaging and data collection were performed on an OPERA confocal microplate imaging reader using a 20× water immersion objective and UV360 or 405 laser to identify the cell nuclei and a 635 laser to identify the fluorescent ApoA-I. Eight fields of view are captured per well. Image capture and analysis was performed with the Acapella software. Background fluorescence detected in control wells without ApoA-I was subtracted.
Using XLfit3 program (ID Business Solutions Ltd. UK), the model 205 for Dose Response One Site is used to calculate the EC50 values. The compounds of the present invention increase the level of ABCA1 protein by more than 45% at a concentration of 3 μM. […] Even more preferably, the compounds of the present invention have EC50 values in a range of 0.1 μM to 3 μM.

human CB2 receptor = biological target: T2, human CB2 receptor (Homo sapiens, UniProt P34972); test: CB2 receptor affinity ([3H]-CP-55,940 displacement, HEK cell membranes); type: binding; conditions: displacement of radioligand [3H]-CP-55,940
T2 construct: expressed in transfected cells; host or cells: human embryonic kidney (HEK) cells, Semliki Forest Virus system, membrane preparations
Method: as §1, with “cannabinoid CB2” for “cannabinoid”, “CB2” for “CB1”, “[^3H]-CP-55,940” for “[3H]-CP-55,940”
as §2

T2 sequence (P34972 whole entry): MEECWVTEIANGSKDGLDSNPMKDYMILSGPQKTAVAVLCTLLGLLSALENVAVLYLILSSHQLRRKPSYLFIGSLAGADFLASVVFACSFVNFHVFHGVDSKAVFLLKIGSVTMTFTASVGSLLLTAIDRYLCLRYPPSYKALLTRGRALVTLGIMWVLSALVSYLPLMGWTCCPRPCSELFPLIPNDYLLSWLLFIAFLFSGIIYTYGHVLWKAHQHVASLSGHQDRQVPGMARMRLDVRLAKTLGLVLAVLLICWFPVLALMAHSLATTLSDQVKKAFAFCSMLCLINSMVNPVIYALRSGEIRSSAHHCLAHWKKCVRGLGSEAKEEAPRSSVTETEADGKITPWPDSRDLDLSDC
T1 sequence (P21554 whole entry): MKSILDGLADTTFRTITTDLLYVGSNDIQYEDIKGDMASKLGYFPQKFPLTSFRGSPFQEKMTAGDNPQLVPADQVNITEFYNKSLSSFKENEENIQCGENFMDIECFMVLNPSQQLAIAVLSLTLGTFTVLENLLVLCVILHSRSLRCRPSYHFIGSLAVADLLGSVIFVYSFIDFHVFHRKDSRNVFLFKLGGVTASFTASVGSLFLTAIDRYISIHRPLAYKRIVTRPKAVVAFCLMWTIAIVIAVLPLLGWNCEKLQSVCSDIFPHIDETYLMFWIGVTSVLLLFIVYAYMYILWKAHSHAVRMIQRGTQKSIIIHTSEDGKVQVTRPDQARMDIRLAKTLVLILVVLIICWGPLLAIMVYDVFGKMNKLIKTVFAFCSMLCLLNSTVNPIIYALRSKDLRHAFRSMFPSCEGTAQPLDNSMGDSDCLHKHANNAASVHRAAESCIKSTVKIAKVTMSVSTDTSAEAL

| Compound | inhibition at 10 µM (human CB1 receptor) [%] | inhibition at 10 µM (human CB2 receptor) [%] | EC50 (ABCA1 protein) [nM] | % increase of ABCA1 at 3 μM (ABCA1 protein) [% @ 3 μM] |
| --- | --- | --- | --- | --- |
| Cn1nccc1C(=O)Nc1cnc(OCC(F)(F)F)c(-c2ccc(Cl)cc2)c1 [Example 20, 1-methyl-1H-pyrazole-5-carboxylic acid[5-(4-chloro-phenyl)-6-(2,2,2-trifluoro-ethoxy)-pyridin-3-yl]-amide] | 34 | 9 | 6400 | – |
| Cc1nc(C)c(C(=O)Nc2cnc(OCC(F)(F)F)c(-c3ccc(Cl)cc3)c2)o1 [Example 21, 2,4-dimethyl-5-oxazolecarboxylic acid[5-(4-chloro-phenyl)-6-(2,2,2-trifluoro-ethoxy)-pyridin-3-yl]-amide] | 29 | 1 | 1370 | – |
| O=C(Nc1cnc(OCC(F)(F)F)c(-c2ccc(Cl)cc2)c1)c1ccns1 [Example 22, 5-isothiazolecarboxylic acid[5-(4-chloro-phenyl)-6-(2,2,2-trifluoro-ethoxy)-pyridin-3-yl]-amide] | 45 | 8 | – | >45 |
| O=C(Nc1cnc(OCC(F)(F)F)c(-c2ccc(Cl)cc2)c1)c1cc[nH]n1 [Example 24, 1H-pyrazole-3-carboxylic acid[5-(4-chloro-phenyl)-6-(2,2,2-trifluoro-ethoxy)-pyridin-3-yl]-amide] | 25 | -1 | 2310 | – |
| O=C(Nc1cnc(OCC(F)(F)F)c(-c2ccc(Cl)cc2)c1)c1ccno1 [Example 30, 5-isoxazolecarboxylic acid[5-(4-chloro-phenyl)-6-(2,2,2-trifluoro-ethoxy)-pyridin-3-yl]-amide] | 27 | -4 | 3860 | – |
| Cc1noc(C)c1C(=O)Nc1cnc(OCC(F)(F)F)c(-c2ccc(Cl)cc2)c1 [Example 31, 3,5-dimethyl-4-isoxazolecarboxylic acid[5-(4-chloro-phenyl)-6-(2,2,2-trifluoro-ethoxy)-pyridin-3-yl]-amide] | 44 | 7 | – | >45 |
| O=C(Nc1cnc(OCC(F)(F)F)c(-c2ccc(Cl)cc2)c1)c1ccnc(O)c1 [Example 32, N-[5-(4-chloro-phenyl)-6-(2,2,2-trifluoro-ethoxy)-pyridin-3-yl]-1,2-dihydro-2-oxo-4-pyridinecarboxylic acid amide] | 21 | 0.9 | 1000 | – |
| Cc1nn(C)cc1C(=O)Nc1cnc(OCC(F)(F)F)c(-c2ccc(Cl)cc2)c1 [Example 33, 1,3-dimethyl-1H-pyrazole-4-carboxylic acid[5-(4-chloro-phenyl)-6-(2,2,2-trifluoro-ethoxy)-pyridin-3-yl]-amide] | 22 | -2 | – | >45 |
| O=C(Nc1cnc(OCC(F)(F)F)c(-c2ccc(Cl)cc2)c1)c1ccncn1 [Example 34, 4-pyrimidinecarboxylic acid[5-(4-chloro-phenyl)-6-(2,2,2-trifluoro-ethoxy)-pyridin-3-yl]-amide] | 31 | 10 | 2400 | – |
| Cc1ccc(-c2cc(NC(=O)c3cccnc3)cnc2OCC(F)(F)F)cc1C [Example 38, N-(5-(3,4-dimethylphenyl)-6-(2,2,2-trifluoroethoxy)pyridin-3-yl)nicotinamide] | 12 | 15 | 2910 | – |
| Cc1cc(-c2cc(NC(=O)c3cccnc3)cnc2OCC(F)(F)F)ccc1Cl [Example 39, N-(5-(4-chloro-3-methylphenyl)-6-(2,2,2-trifluoroethoxy)pyridin-3-yl)nicotin-amide] | 19 | 16 | 2230 | – |

Now from value to molecule, other results behind:

| inhibition at 10 µM (human CB1 receptor) [%] | inhibition at 10 µM (human CB2 receptor) [%] | Compound | EC50 (ABCA1 protein) [nM] | % increase of ABCA1 at 3 μM (ABCA1 protein) [% @ 3 μM] |
| --- | --- | --- | --- | --- |
| 12 | -8 | Cc1cc(C(=O)Nc2cnc(OCC(F)(F)F)c(-c3ccc(Cl)cc3)c2)n[nH]1 [Example 23, 5-methyl-1H-pyrazole-3-carboxylic acid[5-(4-chloro-phenyl)-6-(2,2,2-trifluoro-ethoxy)-pyridin-3-yl]-amide] | 720 | – |
| 25 | -1 | Cc1cc(C(=O)Nc2cnc(OCC(F)(F)F)c(-c3ccc(Cl)cc3)c2)ccn1 [Example 25, N-[5-(4-chloro-phenyl)-6-(2,2,2-trifluoro-ethoxy)-pyridin-3-yl]-2-methyl-4-pyridinecarboxylic acid amide] | 2650 | – |
| 37 | 11 | Cc1cnc(C(=O)Nc2cnc(OCC(F)(F)F)c(-c3ccc(Cl)cc3)c2)s1 [Example 26, 5-methyl-2-thiazole-carboxylic acid[5-(4-chloro-phenyl)-6-(2,2,2-trifluoro-ethoxy)-pyridin-3-yl]-amide] | – | >45 |
| 47 | 10 | Cc1nnsc1C(=O)Nc1cnc(OCC(F)(F)F)c(-c2ccc(Cl)cc2)c1 [Example 27, 4-methyl-1,2,3-thiadiazole-5-carboxylic acid[5-(4-chloro-phenyl)-6-(2,2,2-trifluoro-ethoxy)-pyridin-3-yl]-amide] | – | >45 |
| 36 | -6 | Cc1ccc(C(=O)Nc2cnc(OCC(F)(F)F)c(-c3ccc(Cl)cc3)c2)cn1 [Example 28, N-[5-(4-chloro-phenyl)-6-(2,2,2-trifluoro-ethoxy)-pyridin-3-yl]-6-methyl-3-pyridinecarboxylic acid amide] | – | >45 |
| 41 | 19 | Cc1ncccc1C(=O)Nc1cnc(OCC(F)(F)F)c(-c2ccc(Cl)cc2)c1 [Example 29, N-[5-(4-chloro-phenyl)-6-(2,2,2-trifluoro-ethoxy)-pyridin-3-yl]-2-methyl-3-pyridinecarboxylic acid amide] | – | >45 |
| 18 | -3 | O=C(Nc1cnc(OCC(F)(F)F)c(-c2ccc(Cl)cc2)c1)c1nccs1 [Example 35, 2-thiazolecarboxylic acid[5-(4-chloro-phenyl)-6-(2,2,2-trifluoro-ethoxy)-pyridin-3-yl]-amide] | – | >45 |
| 18 | 2 | Cc1cccnc1C(=O)Nc1cnc(OCC(F)(F)F)c(-c2ccc(Cl)cc2)c1 [Example 36, 3-methyl-2-pyridinecarboxylic acid[5-(4-chloro-phenyl)-6-(2,2,2-trifluoro-ethoxy)-pyridin-3-yl]-amide] | 510 | – |
| 27 | 8 | Cc1ocnc1C(=O)Nc1cnc(OCC(F)(F)F)c(-c2ccc(Cl)cc2)c1 [Example 37, 5-methyl-4-oxazolecarboxylic acid[5-(4-chloro-phenyl)-6-(2,2,2-trifluoro-ethoxy)-pyridin-3-yl]-amide] | – | >45 |
